According to publication PMC12689952 (Frontiers in Pharmacology, 2025):
Where two headings read alike, the source gives them in different places.

How the values were obtained:
[1] = tested on: Sprague Dawley rats; assay: Forced swimming test (FST) after intranasal administration; assay type: in vivo, rat; conditions: for Climbing / Immobility / Swimming: mean ± SEM
Method: (§1) Male Sprague Dawley rats (body weight 200–225 g) were obtained from Charles River (Barcelona, Spain) and maintained in a humidity-controlled and temperature-controlled (20 °C–22 °C) room. Rats were maintained during the alcohol protocol on a 12-h reversed light/dark cycle (lights off at 9 a.m.). All animal experimentation was conducted in accordance with the University of Málaga Guidelines for the Care and Use of Laboratory Animals (Ethic Code: 22/05/2017/066).
(§2) Animals were preacclimated to the procedure and handled daily for 3 days to reduce stress. Rats were administered under light anaesthesia with isoflurane (3%–4% for induction and 1.5%–2% for maintenance) for approximately 2–3 min, sufficient to prevent movement during intranasal administration. A single intranasal infusion of GAL (1–15) (TOCRIS, Bristol, United Kingdom, molecular weight = 1557 g/mol) was administered at doses of 37.5 μg, 75 μg, 150 μg, or 300 μg, equivalent to those used with other peptides ([Serova et al., 2013]; [Serova et al., 2019]). Doses were dissolved in 20 μL of distilled water, with 10 μL administered into each nostril using a disposable plastic-tipped pipette, without inserting deeply, 30 min or 1 h before behavioral testing, as described previously ([Serova et al., 2013]; [Serova et al., 2019]). Care was taken to avoid contact with the intranasal mucosa. After intranasal administration, the animal’s head was held back for approximately 15 s to prevent loss of solution from the nostrils. Animals returned to normal behavior within 1–2 min, and no subjects needed to be withdrawn due to intolerance.
Depressive behavior was assessed using the FST, as described previously ([Millón et al., 2014]; [Cantero-García et al., 2022b]). Briefly, two swimming sessions were conducted: a 15-min pretest followed 24 h later by a 5-min test. Animals were individually placed in a vertical glass cylinder of 20 cm diameter containing water (25 °C) to a height of 30 cm. Immobility, swimming and climbing behaviors were evaluated and recorded during the second 5-min test. Behavioral scoring was conducted by a blinded experimenter using coded videos to ensure objectivity.
Two experiments were conducted in the FST (Figure 1A). A dose-response curve of GAL (1–15) was performed in the first set of experiments. For this, groups of rats received GAL (1–15) intranasally 37.5 μg (n = 6), 75 μg (n = 6), 150 μg (n = 6) or 300 μg (n = 6) or distilled water (n = 12) 30 min before the test. The effects in the FST of GAL (1–15) intranasally at 1 h were studied in the second set of experiments. For this, groups of rats received GAL (1–15) intranasal 37.5 μg (n = 8), 75 μg (n = 8) or distilled water (n = 4–5) 1 h before the test. Animals were randomly assigned to treatment groups.

[2] = tested on: Sprague Dawley rats; assay: Operant alcohol self-administration test after intranasal administration; assay type: in vivo, rat; conditions: 75 μg intranasal, 1 h before test
Method: as §1, §2
Training and testing were conducted in standard operant chambers (Panlab, Barcelona, Spain). Each chamber (250 mm W × 250 mm D × 250 mm H) was equipped with a drinking reservoir positioned 4 cm above the grid floor in the center of the front panel of the chamber, and two retractable levers were located 3 cm to right an left of the dinking receptacle. Each reservoir was calibrated to dispense 0.1 mL when the fixed ratio of lever presses was obtained. Chambers were connected to a computer running Packwin Sofware (2.0, Panlab, Barcelona, Spain).
Alcohol consumption was assessed using the previous self-administration test ([Cantero-García et al., 2022a]; [Cantero-García et al., 2022b]; [Lebourgeois et al., 2018]) (Figure 1B). Briefly, rats were exposed to intermittent consumption of 0.2% saccharin and 10% alcohol for 3 weeks. After that, rats were placed on a water restriction schedule for 2–4 days to facilitate training in lever pressing. […]

[3] = molecular target: hERG potassium channel (Homo sapiens, UniProt Q12809); assay: hERG inhibition, FluxOR potassium assay in hERG-expressing HEK293 cells
Chain of hERG potassium channel (Q12809 whole entry): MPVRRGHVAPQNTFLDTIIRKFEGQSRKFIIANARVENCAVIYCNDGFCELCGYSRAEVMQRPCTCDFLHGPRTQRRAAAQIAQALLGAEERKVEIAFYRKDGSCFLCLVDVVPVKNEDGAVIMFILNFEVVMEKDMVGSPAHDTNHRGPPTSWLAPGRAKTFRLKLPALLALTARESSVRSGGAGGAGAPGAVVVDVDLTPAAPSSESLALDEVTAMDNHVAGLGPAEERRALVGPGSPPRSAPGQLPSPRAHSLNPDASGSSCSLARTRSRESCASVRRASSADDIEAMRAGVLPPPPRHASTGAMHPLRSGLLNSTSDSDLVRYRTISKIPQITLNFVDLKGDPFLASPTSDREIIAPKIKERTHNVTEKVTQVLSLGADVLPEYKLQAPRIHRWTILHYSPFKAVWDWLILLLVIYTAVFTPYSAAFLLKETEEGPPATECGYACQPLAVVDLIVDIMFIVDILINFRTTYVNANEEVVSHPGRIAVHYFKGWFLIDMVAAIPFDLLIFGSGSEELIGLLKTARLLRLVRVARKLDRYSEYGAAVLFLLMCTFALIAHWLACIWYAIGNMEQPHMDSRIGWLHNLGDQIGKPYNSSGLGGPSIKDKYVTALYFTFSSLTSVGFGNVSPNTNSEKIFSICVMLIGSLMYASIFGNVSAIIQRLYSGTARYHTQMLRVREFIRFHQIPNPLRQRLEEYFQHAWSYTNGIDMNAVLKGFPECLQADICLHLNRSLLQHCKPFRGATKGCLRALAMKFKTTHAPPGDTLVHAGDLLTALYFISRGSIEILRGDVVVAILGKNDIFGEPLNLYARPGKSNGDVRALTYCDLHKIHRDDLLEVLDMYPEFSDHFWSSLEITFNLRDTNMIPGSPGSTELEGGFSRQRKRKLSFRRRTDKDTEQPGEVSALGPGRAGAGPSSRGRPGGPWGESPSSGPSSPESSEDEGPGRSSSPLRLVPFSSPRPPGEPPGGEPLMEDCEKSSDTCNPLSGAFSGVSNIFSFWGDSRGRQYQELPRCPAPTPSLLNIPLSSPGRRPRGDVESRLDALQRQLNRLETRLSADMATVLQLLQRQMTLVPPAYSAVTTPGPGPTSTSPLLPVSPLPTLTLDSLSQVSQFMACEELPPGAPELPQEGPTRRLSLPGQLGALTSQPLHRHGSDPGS
Method: Cardiotoxicity of GAL (1–15) was assessed in hERG-expressing HEK cells using the FluxOR™ potassium assay (Invitrogen) on a FLIPR TETRA system. Cells were preloaded with FluxOR™ dye, followed by incubation with GAL (1–15) in a 10-point half-log dose-response curve (max concentration: 50 µM). After a 30-min equilibration, the thallium stimulation buffer was injected to measure potassium flux kinetics. […] Data were analyzed using Genedata Screener software, with IC50 values determined via the Hill model ([Annang et al., 2021]; [Lee et al., 2019]).

[4] = tested on: CHO cells; conditions: 24 h
Method: The study followed OECD Test Guideline 487 for micronucleus assessment in rodent CHO cells (ECACC ref: 85050302). Cells were seeded at 2,000/well in 96-well plates and incubated at 37 °C with 5% CO2. GAL (1–15) (2.52 mM stock) was tested at concentrations ranging from 3.12 to 50 μM for 24 h in six replicates. […] After treatment, cytochalasin B was added for 28 h to block cytokinesis, followed by fixation and Hoechst staining. Imaging was performed using the Operetta CLS High-Content Analysis System, and analysis was conducted with Harmony software and the in-house NucleusFinder App (ImageJ-based). NucleusFinder identified valid micronuclei under stringent criteria, excluding irregular structures ([Durcik et al., 2023]). The cytokinesis-block proliferation index (CBPI) was calculated to assess cytostatic effects, ensuring cytostasis remained below 60% to avoid secondary micronuclei induction due to cytotoxicity. Cytostasis was calculated as follows: %cytostasis = 100–100 [(CBPIT-1)/(CBPIC-1)] where T is the test compound treatment culture, C is the vehicle control culture, and CBPI = {(No. mononucleate cells) + (2 × No. binucleate cells) + (3 × No. multinucleate cells)}/(total number of cells).

[5] = molecular target: T1, CYP3A4 (Homo sapiens, UniProt P08684); assay: Cytochrome P450 inhibition assay in human liver microsomes (testosterone substrate); assay type: in vitro ADME
T1 construct: Following the addition of human liver microsomes (HLM) and specific substrates; from tissue; host or cells: human liver microsomes
T1 sequence (P08684 whole entry): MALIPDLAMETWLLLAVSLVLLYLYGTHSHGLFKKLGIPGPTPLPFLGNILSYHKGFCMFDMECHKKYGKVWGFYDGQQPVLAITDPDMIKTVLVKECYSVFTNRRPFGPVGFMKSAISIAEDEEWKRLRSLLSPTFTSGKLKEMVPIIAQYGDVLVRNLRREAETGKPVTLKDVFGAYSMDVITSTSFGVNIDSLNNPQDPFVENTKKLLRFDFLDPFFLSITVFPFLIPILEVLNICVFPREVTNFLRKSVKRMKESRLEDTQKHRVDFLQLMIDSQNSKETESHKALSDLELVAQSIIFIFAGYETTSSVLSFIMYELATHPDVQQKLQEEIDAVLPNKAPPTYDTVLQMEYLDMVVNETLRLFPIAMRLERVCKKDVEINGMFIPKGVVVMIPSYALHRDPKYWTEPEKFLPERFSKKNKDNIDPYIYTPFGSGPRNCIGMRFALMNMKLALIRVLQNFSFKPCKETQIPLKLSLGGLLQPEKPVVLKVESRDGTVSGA
Method: (§3) The Cytochrome P450 (CYP450) inhibition assay was performed to assess GAL (1–15) using substrates specific for the CYP3A4, CYP2D6, and CYP2C9 isoforms. […] Following the addition of human liver microsomes (HLM) and specific substrates (testosterone for CYP3A4, dextromethorphan for CYP2D6, diclofenac for CYP2C9), reactions were incubated with shaking at 180 Hz (CYP3A4: 15 min; CYP2D6: 30 min; CYP2C9: 45 min). […] Reactions were quenched with acetonitrile, centrifuged, and analyzed using LC-MS/MS with a triple quadrupole mass spectrometer (AB SCIEX API4000) coupled to an Agilent 1290 HPLC system ([Fowler et al., 2022]). Data were processed using Genedata Screener software to calculate IC50 values.

[6] = molecular target: CYP2D6 (Homo sapiens, UniProt P10635); assay: Cytochrome P450 inhibition assay in human liver microsomes (dextromethorphan substrate)
Chain of CYP2D6 (P10635 whole entry): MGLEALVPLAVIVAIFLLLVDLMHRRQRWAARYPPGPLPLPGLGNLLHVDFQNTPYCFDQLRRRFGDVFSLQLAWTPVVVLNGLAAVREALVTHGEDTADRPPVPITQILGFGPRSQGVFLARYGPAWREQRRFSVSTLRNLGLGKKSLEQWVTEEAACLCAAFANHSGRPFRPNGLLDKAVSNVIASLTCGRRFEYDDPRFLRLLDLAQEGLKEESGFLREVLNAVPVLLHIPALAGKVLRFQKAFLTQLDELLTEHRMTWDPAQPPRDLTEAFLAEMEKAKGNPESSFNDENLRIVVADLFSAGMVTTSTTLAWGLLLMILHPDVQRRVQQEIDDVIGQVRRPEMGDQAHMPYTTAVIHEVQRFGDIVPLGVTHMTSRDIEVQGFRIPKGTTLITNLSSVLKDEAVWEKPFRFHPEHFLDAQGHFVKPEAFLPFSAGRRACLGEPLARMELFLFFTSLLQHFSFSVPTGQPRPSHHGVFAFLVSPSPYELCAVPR
Method: as §3

[7] = molecular target: CYP2C9 (Homo sapiens, UniProt P11712); assay: Cytochrome P450 inhibition assay in human liver microsomes (diclofenac substrate)
Chain of CYP2C9 (P11712 whole entry): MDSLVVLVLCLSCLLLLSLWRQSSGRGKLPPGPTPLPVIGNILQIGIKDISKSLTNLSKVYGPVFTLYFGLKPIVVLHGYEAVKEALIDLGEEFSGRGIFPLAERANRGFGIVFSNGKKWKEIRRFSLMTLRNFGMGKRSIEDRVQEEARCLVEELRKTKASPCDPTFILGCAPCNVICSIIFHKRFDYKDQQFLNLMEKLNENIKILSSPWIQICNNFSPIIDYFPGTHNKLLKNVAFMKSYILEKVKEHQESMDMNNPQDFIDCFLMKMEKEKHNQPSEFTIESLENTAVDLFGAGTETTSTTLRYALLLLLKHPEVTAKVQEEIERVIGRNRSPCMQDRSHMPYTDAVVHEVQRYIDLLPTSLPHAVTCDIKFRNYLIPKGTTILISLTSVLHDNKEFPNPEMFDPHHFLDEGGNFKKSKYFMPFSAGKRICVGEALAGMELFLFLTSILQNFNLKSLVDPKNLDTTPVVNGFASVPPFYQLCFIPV
Method: as §3

[8] = tested on: rats; set-up: method as in Millón, 2014; conditions: 3 nmol intracerebroventricular; ref Millón, 2014; cited from earlier work
[9] = tested on: rats; set-up: method as in Cantero-García et al., 2022a; conditions: 3 nmol intracerebroventricular; ref Cantero-García et al., 2022a; cited from earlier work
[10] = tested on: rats; set-up: method as in Millón et al., 2019b; conditions: voluntary intake model; ref Millón et al., 2019b; cited from earlier work
[11] = 37.5 μg intranasal, 1 h before test
[12] = 75 μg intranasal, 1 h before test, p < 0.05 vs control
[13] = 150 μg intranasal, 30 min before test, p < 0.05
[14] = 300 μg intranasal, 30 min before test, p < 0.05

## CC(C)C[C@H](NC(=O)[C@H](CC(C)C)NC(=O)[C@H](Cc1ccc(O)cc1)NC(=O)CNC(=O)[C@H](C)NC(=O)[C@H](CO)NC(=O)[C@H](CC(N)=O)NC(=O)[C@H](CC(C)C)NC(=O)[C@@H](NC(=O)[C@H](Cc1c[nH]c2ccccc12)NC(=O)CN)[C@@H](C)O)C(=O)NCC(=O)N1CCC[C@H]1C(=O)N[C@@H](Cc1cnc[nH]1)C(=O)N[C@@H](C)C(=O)O [GAL (1–15), Galanin (1–15)]
[1]; 37.5 μg intranasal, 30 min before test
  Behavioral effects in the FST: did not produce significant behavioral effects
[1]; [11]
  Immobility, swimming, or climbing behaviors in FST vs control: no significant alterations
  Climbing: 109.6 ± 16.26 s
  Immobility: 59.10 ± 23.04 s
  Swimming: 97.75 ± 16.01 s
[1]; 75 μg intranasal, 30 min before test, p < 0.001
  Immobility time in FST vs control: significant increase in immobility time
[1]; 75 μg intranasal, 30 min before test, p < 0.01
  Swimming time in FST vs control: significantly decreased swimming time
[1]; 75 μg intranasal, 1 h before test
  Swimming: 104.9 ± 15.86 s
[1]; [12]
  Climbing: 62.96 ± 6.47 s
  Immobility: 98.57 ± 18.74 s
[1]; 75 μg intranasal, 1 h before test, p < 0.05
  Immobility time in FST vs control: increasing immobility time
[1]; 75 μg intranasal, 1 h before test, p ≤ 0.05
  Climbing time in FST vs control: reducing climbing time
[1]; [13]
  Immobility in FST vs control: significant increase in immobility
  Swimming time in FST vs control: reduction in swimming time
[1]; [14]
  Immobility in FST vs control: significant increase in immobility
  Swimming time in FST vs control: reduction in swimming time
[1]; any of the tested doses (37.5-300 μg) intranasal, 30 min before test
  Climbing time in FST: No effects were observed
[2]
  Total number of inactive lever presses vs control: did not significantly differ
[2]; 30-min session, p < 0.01
  Active lever presses vs control: significantly reduced
  Number of alcohol reinforcements vs control: marked decrease
[2]; mean ± SEM
  Inactive lever presses: 0.2 ± 0.1
[3]; Cardiotoxicity classification from hERG IC50, FluxOR potassium assay, HEK293-hERG
  IC50: > 10 µM
[3]; hERG IC50, HEK293 cells stably expressing hERG, FluxOR potassium assay, n = 3
  IC50: 20.9 µM
[4]; 3.125 µM
  % Cytostasis: 0%
  % MN: 8.39%
  No. binucleate cells: 3,324
  No. of binucleated cells with MN: 278
[4]; 6.25 µM
  % Cytostasis: 0%
  % MN: 8.28%
  No. binucleate cells: 3,210
  No. of binucleated cells with MN: 265
[4]; 12.5 µM
  % Cytostasis: 0%
  % MN: 8.53%
  No. binucleate cells: 3,209
  No. of binucleated cells with MN: 273
[4]; 25 µM
  % Cytostasis: 0%
  % MN: 8.70%
  No. binucleate cells: 3,135
  No. of binucleated cells with MN: 272
[4]; 50 µM
  % Cytostasis: 0.1%
  % MN: 7.94%
  No. binucleate cells: 3,108
  No. of binucleated cells with MN: 246
[4]; any tested concentration, highest 50 μM
  Micronucleus formation: did not induce micronucleus formation
[5]
  CYP3A4 inhibitory potency class: weak (weak inhibitors (IC50 > 10 μM))
[5]; pH 7.4, testosterone substrate, N = 3, read-out: CYP3A4 IC50 [lower and upper 95%]
  IC50 at 15 min: > 23 µM
[5]; testosterone substrate, N = 3, read-out: CYP3A4 IC50 [lower and upper 95%]
  IC50: > 26 µM
[6]
  IC50: > 26 µM
[6]; human liver microsomes
  CYP2D6 inhibitory potency class: weak (weak inhibitors (IC50 > 10 μM))
[6]; human, microsomes, pH 7.4
  IC50 at 30 min: > 23 µM
[7]
  IC50: > 26 µM
[7]; human liver microsomes
  CYP2C9 inhibitory potency class: weak (weak inhibitors (IC50 > 10 μM))
[7]; human, microsomes, pH 7.4
  IC50 at 45 min: > 23 µM
[8]
  Decrease in climbing behavior in FST: 46%
  Increase in immobility in FST: 44%
[9]
  Number of alcohol reinforcements: significantly reduced
[10]
  Decrease in alcohol preference and consumption: 90%
